Consider eleven molecules from ChEMBL document CHEMBL1201862, “PubChem BioAssay data set” (2004).

Among the test systems are SF-539; K562; M14; PC-3; SF-295; DU-145; SW-620; HCC 2998; HT-29; MDA-N; HL-60; SK-MEL-5; NCI-H23; CAKI-1; RXF 393; BT-549; A498; MDA-MB-231; HCT-116.
What all share (assay): inhibition of tumour cell growth, NCI panel, 48 h

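Briefly, cells in 96-well plates were exposed to five compound concentrations for 48 h, and endpoints were estimated by linear interpolation. Abbreviation: GI50, concentration required for 50% inhibition of growth.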 Calls of active or inactive are those of the source. Rule as the data show it: active = GI50 up to about 1.1 µM and inactive = higher.

As to `Nc1ccc(-c2nc3ccccc3s2)cc1Br`, the GI50 in the assay with SF-539 was > 51.3 µM (inactive); in the assay on K562, 87.1 µM (inactive); in the assay with M14 it was 97.9 µM (inactive); with PC-3 it was 69.7 µM (inactive); with SF-295 it was 66.7 µM (inactive); in the assay with DU-145, > 100 µM (inactive). Further, the GI50 in the assay with SW-620 was > 100 µM (inactive); with HCC 2998, 72.6 µM (inactive); in the assay with HT-29 it was > 100 µM (inactive); in the assay on MDA-N, > 100 µM (inactive); in the assay with HL-60 it was > 100 µM (inactive); in the assay with SK-MEL-5 it was > 100 µM (inactive). Moreover, the GI50 with NCI-H23 was 63.7 µM (inactive); with CAKI-1, > 100 µM (inactive); in the assay on RXF 393, > 38.9 µM (inactive); in the assay on BT-549 it was > 56.8 µM (inactive); in the assay with A498, 2.44 µM (inactive); with MDA-MB-231, 52.6 µM (inactive).

For `COc1cccc(C2CC(C)(O)Oc3cc4c(cc32)OCO4)c1O` (centres undefined), the GI50 with SF-539 was 17.4 µM (inactive); with K562, 9.68 µM (inactive); with M14 it was 13.5 µM (inactive); in the assay on PC-3 it was 27.2 µM (inactive); with SF-295, 19.4 µM (inactive); with DU-145, 22.6 µM (inactive). Further, the GI50 was 22.8 µM (inactive) in the assay on SW-620; 25.6 µM (inactive) with HCC 2998; 21.4 µM (inactive) in the assay on HT-29; 2.72 µM (inactive) with MDA-N; 31 µM (inactive) with HL-60; 9.31 µM (inactive) with SK-MEL-5. Moreover, the GI50 with NCI-H23 was 30.4 µM (inactive); with CAKI-1, 39.4 µM (inactive); in the assay with HCT-116, 10.7 µM (inactive); in the assay on RXF 393, 26.3 µM (inactive); with BT-549, 15.3 µM (inactive); in the assay on A498, 41.7 µM (inactive). For the same molecule, the GI50 in the assay on MDA-MB-231 is 18 µM (inactive).

`Cc1ccc(C2=NN=C3C(c4ccccc4)=Nc4ccccc4N3C2)cc1`: the GI50 with SF-539 was 19.1 µM (inactive); in the assay on K562, 4.61 µM (inactive); with M14 it was 3.64 µM (inactive); with PC-3, 11.8 µM (inactive); in the assay on SF-295, 12 µM (inactive); in the assay on DU-145, 3.14 µM (inactive). Further, the GI50 with SW-620 was 5.51 µM (inactive); in the assay with HCC 2998, 19.6 µM (inactive); in the assay on HT-29, 11.6 µM (inactive); in the assay with MDA-N it was 32.9 µM (inactive); in the assay on HL-60, 1.92 µM (inactive); in the assay on SK-MEL-5, 6.31 µM (inactive). Moreover, the GI50 with NCI-H23 is 25.7 µM (inactive); in the assay on CAKI-1 it was 19.7 µM (inactive); with HCT-116, 5.28 µM (inactive); in the assay on RXF 393 it was 4.41 µM (inactive); in the assay with BT-549, 20.6 µM (inactive); in the assay with A498, > 53.1 µM (inactive). In addition, the GI50 in the assay on MDA-MB-231 is 19.8 µM (inactive).

Turning to `CO/N=C(/C(=O)N(C(=O)/C(=N/OC)c1csc(NC(c2ccccc2)(c2ccccc2)c2ccccc2)n1)n1cnn(CC(=O)OC(C)(C)C)c1=O)c1csc(NC(c2ccccc2)(c2ccccc2)c2ccccc2)n1`, the GI50 in the assay with SF-539 was > 10 µM (inactive); in the assay on K562, > 10 µM (inactive); in the assay with M14, > 10 µM (inactive); with PC-3, 1.87 µM (inactive); in the assay on SF-295, > 10 µM (inactive); in the assay on DU-145 it was > 10 µM (inactive). Also, the GI50 in the assay with SW-620, in the assay with HCC 2998, in the assay on HT-29, in the assay with MDA-N, with HL-60 and with SK-MEL-5 was > 10 µM (inactive) each time. Also, the GI50 was > 10 µM (inactive) in the assay with NCI-H23; > 10 µM (inactive) with CAKI-1; > 10 µM (inactive) in the assay with HCT-116; > 10 µM (inactive) in the assay with RXF 393; 2.16 µM (inactive) with BT-549; > 10 µM (inactive) with A498. Also, the GI50 with MDA-MB-231 is > 10 µM (inactive).

Regarding `NCCSS(=O)(=O)CCN`, the GI50 in the assay on SF-539, in the assay on K562, in the assay with M14, in the assay with PC-3, with SF-295 and in the assay on DU-145 was > 100 µM (inactive) each time. The GI50 in the assay on SW-620, with HCC 2998, in the assay on HT-29, in the assay on MDA-N, in the assay with HL-60 and with SK-MEL-5 was > 100 µM (inactive) each time. In addition, the GI50 in the assay on NCI-H23, in the assay with CAKI-1, with HCT-116, in the assay with RXF 393, in the assay on BT-549 and in the assay on A498 was > 100 µM (inactive) throughout. In the assay on MDA-MB-231, the GI50 is > 100 µM (inactive).

Regarding `C=C1C(C2(C)C(OC(C)=O)CC(=O)OC(C)(COC(C)=O)C2CC(=O)OC)C(OC=O)C(OC(=O)C(O)C(C)CC)C2(C)C(c3ccoc3)CC(=O)C12O` (centres undefined), the GI50 is 4.42 µM (inactive) with SF-539; 4.49 µM (inactive) with K562; > 23.8 µM (inactive) in the assay on M14; 5.52 µM (inactive) in the assay with PC-3; 4.32 µM (inactive) in the assay on SF-295; 5.46 µM (inactive) in the assay on DU-145. The GI50 is 2.08 µM (inactive) in the assay with SW-620; 0.16 µM (active) in the assay on HCC 2998; 3.42 µM (inactive) in the assay on HT-29; 7.26 µM (inactive) in the assay with MDA-N; 0.157 µM (active) in the assay on HL-60; 2.94 µM (inactive) in the assay with SK-MEL-5. The GI50 in the assay on NCI-H23 is > 73.5 µM (inactive); in the assay on CAKI-1, 3.27 µM (inactive); in the assay on HCT-116, 1.58 µM (inactive); in the assay on RXF 393 it was 2.7 µM (inactive); with BT-549, 4.33 µM (inactive); with A498, 4.52 µM (inactive). Also, the GI50 in the assay with MDA-MB-231 was 4.69 µM (inactive).

For `CCc1c(Cl)nc(Cl)nc1Cl`, the GI50 in the assay with SF-539 is 0.372 µM (active); in the assay with K562 it was 0.0208 µM (active); in the assay with M14, 0.0438 µM (active); with PC-3, 0.698 µM (active); in the assay with SF-295, 2.05 µM (inactive); in the assay on DU-145, 2.05 µM (inactive). Further, the GI50 was 0.0449 µM (active) in the assay on SW-620; 0.214 µM (active) in the assay with HCC 2998; 0.121 µM (active) with HT-29; 0.259 µM (active) in the assay with MDA-N; 0.206 µM (active) in the assay on HL-60; 0.224 µM (active) with SK-MEL-5. Further, the GI50 in the assay on NCI-H23 is 0.321 µM (active); with CAKI-1 it was 0.0484 µM (active); in the assay with HCT-116 it was 0.0885 µM (active); in the assay on RXF 393, 0.296 µM (active); in the assay on BT-549, 0.0199 µM (active); in the assay on A498, 5.79 µM (inactive). Moreover, the GI50 in the assay on MDA-MB-231 is 0.346 µM (active).

Regarding `NC(=O)CSc1c2cc(O)ccc2nc2ccc(O)cc12`, the GI50 in the assay on SF-539, in the assay with K562, with M14, in the assay on PC-3, in the assay with SF-295 and in the assay with DU-145 was > 10 µM (inactive) each time. Further, the GI50 in the assay on SW-620, in the assay with HCC 2998, in the assay on HT-29, in the assay on MDA-N, in the assay on HL-60 and in the assay with SK-MEL-5 was > 10 µM (inactive) in each case. For the same molecule, the GI50 in the assay on NCI-H23, with CAKI-1, in the assay with HCT-116, in the assay on RXF 393, in the assay on BT-549 and in the assay on A498 was > 10 µM (inactive) in each case. Moreover, the GI50 in the assay on MDA-MB-231 was > 10 µM (inactive).

Regarding `COc1ccc(C(=O)N(Cc2cccnc2)C(=S)N(Cc2cccnc2)C(=O)c2ccc(OC)cc2)cc1`, the GI50 in the assay with SF-539 was > 100 µM (inactive); with K562, > 100 µM (inactive); in the assay with M14, > 100 µM (inactive); in the assay on PC-3, > 100 µM (inactive); in the assay on SF-295, 57.8 µM (inactive); in the assay on DU-145 it was > 100 µM (inactive). The GI50 in the assay on SW-620, in the assay on HCC 2998, in the assay on HT-29, with MDA-N, in the assay on HL-60 and in the assay with SK-MEL-5 was > 100 µM (inactive) throughout. The GI50 in the assay with NCI-H23 is > 100 µM (inactive); in the assay on CAKI-1, 86.9 µM (inactive); in the assay with HCT-116, > 100 µM (inactive); in the assay with RXF 393, 38.8 µM (inactive); in the assay on BT-549, > 100 µM (inactive); in the assay with A498, > 100 µM (inactive). The GI50 in the assay with MDA-MB-231 was > 100 µM (inactive).

Regarding `O=c1[nH]cnc2c1ncn2[C@@H]1C[C@H]1CO`, the GI50 in the assay on SF-539, in the assay with K562, in the assay with M14, in the assay on PC-3, in the assay on DU-145 and in the assay with SW-620 was > 100 µM (inactive) in each case. In addition, the GI50 in the assay with HCC 2998, in the assay with HT-29, with MDA-N, with HL-60, in the assay on SK-MEL-5 and with NCI-H23 was > 100 µM (inactive) in each case. Also, the GI50 in the assay with CAKI-1, in the assay on HCT-116, in the assay with RXF 393, in the assay with BT-549, in the assay on A498 and with MDA-MB-231 was > 100 µM (inactive) throughout.

Turning to `C=C(C)[C@H]1C2=CC(C)=C(O2)[C@@H](O)[C@H](C(=C)C)CCC2=C[C@H]1OC2=O` [KALLOLIDE A], the GI50 in the assay on SF-539, with K562, with M14, with PC-3, in the assay on SF-295 and in the assay on DU-145 was > 100 µM (inactive) in each case. For the same molecule, the GI50 with SW-620, in the assay with HCC 2998, with MDA-N, with HL-60, with SK-MEL-5 and in the assay on CAKI-1 was > 100 µM (inactive) throughout. For the same molecule, the GI50 in the assay on RXF 393, in the assay with BT-549, in the assay with A498 and in the assay with MDA-MB-231 was > 100 µM (inactive) throughout.
